The results in this text go back to US10202411B2, “3′-substituted methyl or alkynyl nucleosides nucleotides for the treatment of HCV” (priority 2014, dated 2019).

Where two headings read alike, the source gives them in different places.

The target in series [1] is wild-type HCV genotype 1b NS5B protein (Hepatitis C virus genotype 1b (isolate Con1) (HCV), UniProt Q9WMX2). The experiment in a line: HCV polymerase enzyme assay, wild-type. Particulars: nucleoside triphosphate form, recombinant HCV genotype 1b NS5B. The format is biochemical. The source says:
(§1) Test compounds in the form of nucleoside triphosphates were examined for inhibitory activity against purified HCV polymerase in a standard assay. Bacterial expression constructs encoding the approximately 65 kDa HCV genotype 1b NS5B protein were used to generate recombinant HCV polymerases (with a deletion of the 21 carboxy terminal amino acids). Both the wild-type genotype 1b protein and protein containing the S282T mutation were expressed and purified for use in the enzymatic activity assay.
The enzymatic activity assay measured the inhibitory effect of increasing concentrations of test compound on the incorporation of α-[^33P]-labeled nucleotide into trichloroacetic acid-precipitable material. Recombinant polymerase and synthetic RNA template were combined in reaction buffer containing ribonucleoside triphosphates, α-[^33P]-labeled nucleotide and eight concentrations of test compound in three-fold dilutions. Reactions were incubated for two hours at 30° C.
(§2) Reactions were terminated by the addition of ice-cold trichloroacetic acid and sodium pyrophosphate to promote precipitation of newly-synthesized ribonucleic acid. Precipitable material from the reactions was collected by filtration onto 96-well filter plates, washed extensively with water, and quantified by liquid scintillation.
(§3) The inhibitory activity of test compounds was determined by fitting results to dose-response curves using XLfit software.

The target of series [2] is HCV genotype 1b NS5B protein containing the S282T mutation (Hepatitis C virus genotype 1b (isolate Con1) (HCV), UniProt Q9WMX2, S2701T). The experiment in a line: HCV polymerase enzyme assay, S282T mutant. The series is classed as biochemical. As to conditions: nucleoside triphosphate form, recombinant HCV genotype 1b NS5B.
Excerpt: as §1
The enzymatic activity assay measured the inhibitory effect of increasing concentrations of test compound on the incorporation of α-[^33P]-labeled nucleotide into trichloroacetic acid-precipitable material. Recombinant polymerase and synthetic RNA template were combined in reaction buffer containing ribonucleoside triphosphates, α-[^33P]-labeled nucleotide and eight concentrations of test compound in three-fold dilutions. […]
as §2, §3

The next series relates to HCV genotype 1b replicon. The experiment in a line: HCV replicon assay (Zluc luciferase reporter). The series is classed as cell-based. Particulars: read-out: HCV Replicon EC50. As for the experimental part:
Huh-7-derived cell line (Zluc) that harbors an HCV genotype 1b replicon and a luciferase reporter gene was grown in Dulbecco's Modified Eagle Medium (DMEM) supplemented with 10% fetal bovine serum, 2 mM GlutaMAX, 1% MEM nonessential amino acids, 100 IU/mL penicillin, 100 μg/mL streptomycin, and 0.5 mg/mL Geneticin® (G418). For dose response testing the cells were seeded in 96-well plates at 7.5×10^3 cells per well in a volume of 50 μL, and incubated at 37° C./5% CO2. Drug solutions were made up freshly in Huh-7 media as 2× stocks. Ten additional 5-fold dilutions were prepared from these stocks in DMEM without G418. At least three hours after Zluc cells were seeded, drug treatment was initiated by adding 50 μL of drug dilutions to the plates in duplicate. Final concentrations of drug ranged from 100 μM to 0.0000512 μM. Cells were then incubated at 37° C./5% CO2. Alternatively, compounds were tested at two concentrations (1 μM and 10 μM). […] After 72 hours of incubation, the inhibition of HCV replication was measured by quantification of photons emitted after mono-oxygenation of 5′-fluoroluciferin to oxyfluoroluciferin by firefly luciferase. For this, media was removed from the plates via gentle tapping. Fifty microliters of ONE-glo luciferase assay reagent was added to each well. The plates were shaken gently for 3 min at room temperature and luminescence was measured on a Victor^3 V 1420 multilabel counter (Perkin Elmer) with a 1 second read time using a 700 nm cut-off filter. The EC50 values were calculated from dose response curves from the resulting best-fit equations determined by Microsoft Excel and XLfit 4.1 software. When screening at two fixed concentrations, the results were expressed as % inhibition at 1 μM and 10 μM.
In general terms: In antiviral work, replicon cells carry a viral genome segment that copies itself.

A short description of series [3]: Pharmacokinetics of liver triphosphate following a single oral dose in CD-1 mice. The format is in vivo. Particulars: CD-1 male mice; for Ms Liver TP AUC: integrated concentration; for Ms Liver TP Cmax: single point concentration. The protocol: A single oral dose of Compound 1 at 10 mg/kg in PEG 200 (dose volume 5 mL/kg) was administered to nine CD-1 male mice. Five untreated animals were used for the collection of control liver. Liver samples were collected from three animals per time point at 4, 12 and 24 hours post dose. Liver specimens were collected from all animals immediately after the incision. Freezing forceps stored in liquid nitrogen were used to freeze the liver before excision.
Liver samples were analyzed for the active species nucleoside triphosphate by LC-MS/MS. The triphosphate levels were assayed by homogenizing (on ice) a known weight of mouse liver with 4× volume of 0.95 M trichloroacetic acid (TCA). Internal standard solution was added to the homogenate followed by neutralization with 20% ammonium hydroxide solution and addition of 500 μL 1% formic acid. The tissue samples were extracted by weak anion exchange solid phase extraction (SPE). Post extraction, the eluates were evaporated under nitrogen, followed by reconstitution before injection onto the LC-MS/MS system. The samples were chromatographed on a Luna NH2 column using a gradient system of ammonium acetate (1 mM to 20 mM and pH 8.0 to pH 10.0) in water and acetonitrile (70:30). The analyte was detected and quantified by tandem mass spectrometry in positive ion mode on an API4000 equipped with a Turbo Ionspray® interface.

A further series in a line: in vitro. As to conditions: human.
For the next series, the system named is Zluc cells. The experiment in a line: Cytotoxicity evaluation, CellTiter-Blue Cell Viability Assay. Particulars: read-out: HCV Replicon CC50; Zluc cells, CellTiter-Blue cell viability. (In general: Resazurin is reduced to fluorescent resorufin, in cell work by metabolically active cells.)
Experiment in series [4]: as above
Particulars: human.

The term IC50 denotes the concentration that gives 50% inhibition. A word on the EC50: it is the concentration needed to bring the measured effect to its halfway point.

Take `Nc1nc2c(ncn2[C@@H]2O[C@H](COP(=O)(O)OP(=O)(O)OP(=O)(O)O)[C@@H](CF)[C@H]2O)c(=O)[nH]1` [Compound 327]: the IC50 in series [1] and in series [2] was less than 0.25 µM in each case.
As to `Nc1nc2c(ncn2[C@@H]2O[C@H](COP(=O)(O)OP(=O)(O)OP(=O)(O)O)[C@@H](CO)[C@H]2O)c(=O)[nH]1` [Compound 308], the IC50 in series [1] and in series [2] was less than 0.25 µM each time.
With `CCOc1nc(N)nc2c1ncn2[C@@H]1O[C@H](COP(=O)(N[C@H](C)C(=O)OC(C)C)Oc2ccccc2)[C@@H](CF)[C@H]1O` (single isomer, unassigned) [Compound 125a Diastereomer 1], the EC50 in the series with HCV genotype 1b replicon (Hepatitis C virus, Huh-7-derived Zluc cells, genotype 1b replicon, luciferase, 72 hours) was more than 10 µM. Besides, in series [3], the “Ms Liver TP AUC” value was “+++ (500 <+++ ≤1500)” and the “Ms Liver TP Cmax” value is “+++ (50 < +++ ≤100)”. Further, in the series “in vitro”, the CC50 was more than 50 µM.
Turning to `CCOc1nc(N)nc2c1ncn2[C@@H]1O[C@H](COP(=O)(N[C@H](C)C(=O)OC(C)C)Oc2ccccc2)[C@@H](CF)[C@H]1O` (single isomer, unassigned) [Compound 125a Diastereomer 2], the EC50 in the series on HCV genotype 1b replicon (Huh-7-derived Zluc cells, genotype 1b replicon, luciferase, 72 hours) is more than 10 µM. In series [3], the “Ms Liver TP AUC” value is reported as “+++ (500 <+++ ≤1500)” and the “Ms Liver TP Cmax” value is recorded as “+++ (50 < +++ ≤100)”. Moreover, the CC50 in the series on Zluc cells was more than 50 µM.
For the molecule `CC(C)OC(=O)[C@@H](C)NP(=S)(OC[C@H]1O[C@@H](n2ccc(=O)[nH]c2=O)[C@H](O)[C@@H]1CO)Oc1ccccc1` (single isomer, unassigned) [Compound 122a Diastereomer 1], the EC50 in the series with HCV genotype 1b replicon (Hepatitis C virus, 72 h) is more than 10 µM. The same molecule registered a CC50 at 72 h in series [4] of more than 50 µM.
